Where two headings read alike, the source gives them in different places.
Experiments:
[1] = Colonic intubation study: plasma pharmacokinetics of rabeprazole and esomeprazole; assay type: in vivo, human; details: for AUC(0-inf): read-out: AUCinf (mean)
Description: A single-dose, open-label, partially randomized, five-treatment, five-period, crossover pilot study was performed in healthy males to determine relative pharmacokinetics of rabeprazole, and comparators when dosed either orally or colonically. The study was a single dose study with blood sampling up to 24 hours following initiation. […] Colonic dosing occurred using a nasoenteral tube. Treatment C was a single 20 mg dose of rabeprazole sodium oral enteric coated tablets dosed orally. Treatment D was placebo (200 mL of water) dosed orally. […] For subjects whose apparent elimination rate constant [k] could not be properly determined, the AUC to infinity [AUCinf]) was calculated based on the median apparent elimination constant [k] of the subjects with available t1/2 values in the same treatment period. […] The intragastric pH profile were determined.

intragastric pH = experiment: Colonic intubation study: intragastric pH profile (percent of time with pH >4); assay type: in vivo, human
Description: A single-dose, open-label, partially randomized, five-treatment, five-period, crossover pilot study was performed in healthy males to determine relative pharmacokinetics of rabeprazole, and comparators when dosed either orally or colonically. The study was a single dose study with blood sampling up to 24 hours following initiation.
Treatments A and B were rabeprazole sodium solution dosed to provide 30 and 60 mg, respectively, over 20 hours in the transverse colon of the subjects. Colonic dosing occurred using a nasoenteral tube. Treatment C was a single 20 mg dose of rabeprazole sodium oral enteric coated tablets dosed orally. Treatment D was placebo (200 mL of water) dosed orally.
The intragastric pH profile was analyzed based on the percentage of time that the intragastric pH was above 4, which was calculated for the full 24 hours. In addition, the mean pH value over 5 time intervals of 6 hours each during the 30-hr sampling time was also estimated.

[2] = male, human, plasma, other: colonic (nasoenteral tube into the transverse colon), 30 mg, TRT A: rabeprazole 30 mg solution in the colon over 20 hours, N = 19
[3] = male, human, plasma, other: colonic (nasoenteral tube into the transverse colon), 30 mg, TRT A: rabeprazole 30 mg solution in the colon over 20 hours, subset N = 14
[4] = male, human, plasma, other: colonic (nasoenteral tube into the transverse colon), 60 mg, TRT B: rabeprazole 60 mg solution in the colon over 20 hours, N = 19
[5] = male, human, plasma, other: colonic (nasoenteral tube into the transverse colon), 60 mg, TRT B: rabeprazole 60 mg solution in the colon over 20 hours, subset N = 14
[6] = male, human, plasma, po, 20 mg, TRT C: rabeprazole 20 mg oral tablet, N = 19
[7] = male, human, plasma, po, 20 mg, TRT C: rabeprazole 20 mg oral tablet, subset N = 14

SMILES: COCCCOc1ccnc(C[S+]([O-])c2nc3ccccc3[nH]2)c1C (centres unmarked) [Rabeprazole, 2-[[[4-(3-methoxypropoxy)-3-methyl-2-pyridinyl]-methyl]sulfinyl]-1H-benzimidazole]
- dose proportionality of mean Cmax and AUC ([1]; 30 mg and 60 mg colonic treatments): increased approximately dose proportionally
- Tmax ([1]; male, human, plasma, other: colonic (nasoenteral tube into the transverse colon), 30 mg, 30 mg rabeprazole colonic solution treatment, after start of treatment (colon infusion ended at 20 hr), read-out: median Tmax): ~18 h
- AUC(0-t) [1, 2]: 287 ng·h/mL
- AUC(0-inf) [1, 2]: 332 ng·h/mL
- Tmax ([1]; male, human, plasma, other: colonic (nasoenteral tube into the transverse colon), 30 mg, TRT A: rabeprazole 30 mg solution in the colon over 20 hours, N = 19, read-out: Tmax (median)): 18 h
- half-life ([1]; male, human, plasma, other: colonic (nasoenteral tube into the transverse colon), 30 mg, TRT A: rabeprazole 30 mg solution in the colon over 20 hours, N = 19, read-out: t1/2 (median) (converted)): 2 h
- Cmax ([1]; male, human, plasma, other: colonic (nasoenteral tube into the transverse colon), 30 mg, TRT A: rabeprazole 30 mg solution in the colon over 20 hours, single dose, healthy males, N = 19): 18 ng/mL
- AUC(0-t) [1, 3]: 290 ng·h/mL
- AUC(0-inf) [1, 3]: 343 ng·h/mL
- half-life ([1]; male, human, plasma, other: colonic (nasoenteral tube into the transverse colon), 30 mg, TRT A: rabeprazole 30 mg solution in the colon over 20 hours, subset N = 14, read-out: t1/2 (median) (converted)): 2 h
- Tmax ([1]; male, human, plasma, other: colonic (nasoenteral tube into the transverse colon), 60 mg, 60 mg rabeprazole colonic solution treatment, after start of treatment (colon infusion ended at 20 hr), read-out: median Tmax): ~18 h
- AUC(0-t) [1, 4]: 549 ng·h/mL
- AUC(0-inf) [1, 4]: 599 ng·h/mL
- Tmax ([1]; male, human, plasma, other: colonic (nasoenteral tube into the transverse colon), 60 mg, TRT B: rabeprazole 60 mg solution in the colon over 20 hours, N = 19, read-out: Tmax (median)): 18 h
- half-life ([1]; male, human, plasma, other: colonic (nasoenteral tube into the transverse colon), 60 mg, TRT B: rabeprazole 60 mg solution in the colon over 20 hours, N = 19, read-out: t1/2 (median) (converted)): 1.9 h
- Cmax ([1]; male, human, plasma, other: colonic (nasoenteral tube into the transverse colon), 60 mg, TRT B: rabeprazole 60 mg solution in the colon over 20 hours, single dose, healthy males, N = 19): 38.4 ng/mL
- AUC(0-t) [1, 5]: 586 ng·h/mL
- AUC(0-inf) [1, 5]: 646 ng·h/mL
- half-life ([1]; male, human, plasma, other: colonic (nasoenteral tube into the transverse colon), 60 mg, TRT B: rabeprazole 60 mg solution in the colon over 20 hours, subset N = 14, read-out: t1/2 (median) (converted)): 2.1 h
- half-life ([1]; male, human, plasma, other: colonic (nasoenteral tube into the transverse colon), rabeprazole following colonic treatment, read-out: median plasma half-life (converted)): ~2 h
- bioavailability ([1]; male, human, plasma, other: colonic (nasoenteral tube into the transverse colon), colonic treatment compared to oral tablets, dose-normalized basis, read-out: percent relative bioavailability (colonic bioavailability)): ~40%
- Cmax ([1]; male, human, plasma, other: colonic (transverse colon, via nasoenteral tube), 30 mg, TRT A: rabeprazole 30 mg solution in the colon over 20 hours, subset N = 14): 18.7 ng/mL
- Tmax ([1]; male, human, plasma, other: colonic (transverse colon, via nasoenteral tube), 30 mg, TRT A: rabeprazole 30 mg solution in the colon over 20 hours, subset N = 14, read-out: Tmax (median)): 18 h
- Cmax ([1]; male, human, plasma, other: colonic (transverse colon, via nasoenteral tube), 60 mg, TRT B: rabeprazole 60 mg solution in the colon over 20 hours, subset N = 14): 43.7 ng/mL
- Tmax ([1]; male, human, plasma, other: colonic (transverse colon, via nasoenteral tube), 60 mg, TRT B: rabeprazole 60 mg solution in the colon over 20 hours, subset N = 14, read-out: Tmax (median)): 18 h
- Tmax ([1]; male, human, plasma, po, 20 mg, 20 mg rabeprazole oral tablet treatment, read-out: median Tmax): 4.5 to 6 h
- AUC(0-t) [1, 6]: 534 ng·h/mL
- AUC(0-inf) [1, 6]: 603 ng·h/mL
- Tmax ([1]; male, human, plasma, po, 20 mg, TRT C: rabeprazole 20 mg oral tablet, N = 19, read-out: Tmax (median)): 4.5 h
- half-life ([1]; male, human, plasma, po, 20 mg, TRT C: rabeprazole 20 mg oral tablet, N = 19, read-out: t1/2 (median) (converted)): 0.96 h
- Cmax ([1]; male, human, plasma, po, 20 mg, TRT C: rabeprazole 20 mg oral tablet, single dose, healthy males, N = 19): 239 ng/mL
- AUC(0-t) [1, 7]: 619 ng·h/mL
- Cmax [1, 7]: 267 ng/mL
- AUC(0-inf) [1, 7]: 697 ng·h/mL
- Tmax ([1]; male, human, plasma, po, 20 mg, TRT C: rabeprazole 20 mg oral tablet, subset N = 14, read-out: Tmax (median)): 6 h
- half-life ([1]; male, human, plasma, po, 20 mg, TRT C: rabeprazole 20 mg oral tablet, subset N = 14, read-out: t1/2 (median) (converted)): 1 h
- half-life ([1]; male, human, plasma, po, 20 mg, rabeprazole following oral administration, read-out: median plasma half-life (converted)): ~1 h
- AUC compared with 20 mg oral tablet ([1]; rabeprazole 60 mg colonic treatment): comparable AUC
- Mean percent of time with pH >4 (intragastric pH; 0-6 hr (10 am-4 pm), TRT A: rabeprazole 30 mg solution in the colon, N = 19): 30.6%
- Mean percent of time with pH >4 (intragastric pH; 0-6 hr (10 am-4 pm), TRT B: rabeprazole 60 mg solution in the colon, N = 19): 32.6%
- Mean percent of time with pH >4 (intragastric pH; 0-6 hr (10 am-4 pm), TRT B: rabeprazole 60 mg solution in the colon, subset N = 14): 34.6%
- Mean percent of time with pH >4 (intragastric pH; 0-6 hr (10 am-4 pm), TRT C: rabeprazole 20 mg oral tablet, N = 19): 31.1%
- Mean percent of time with pH >4 (intragastric pH; 0-6 hr (10 am-4 pm), TRT C: rabeprazole 20 mg oral tablet, subset N = 14): 29.1%
- Mean percent of time with pH >4 (intragastric pH; 6-12 hr (4 pm-10 pm), TRT A: rabeprazole 30 mg solution in the colon, N = 19): 37.9%
- Mean percent of time with pH >4 (intragastric pH; 6-12 hr (4 pm-10 pm), TRT B: rabeprazole 60 mg solution in the colon, N = 19): 50.5%
- Mean percent of time with pH >4 (intragastric pH; 6-12 hr (4 pm-10 pm), TRT B: rabeprazole 60 mg solution in the colon, subset N = 14): 55.8%
- Mean percent of time with pH >4 (intragastric pH; 6-12 hr (4 pm-10 pm), TRT C: rabeprazole 20 mg oral tablet, N = 19): 60.9%
- Mean percent of time with pH >4 (intragastric pH; 6-12 hr (4 pm-10 pm), TRT C: rabeprazole 20 mg oral tablet, subset N = 14): 63.6%
- Mean percent of time with pH >4 (intragastric pH; 12-18 hr (10 pm-4 am), TRT A: rabeprazole 30 mg solution in the colon, N = 19): 23.2%
- Mean percent of time with pH >4 (intragastric pH; 12-18 hr (10 pm-4 am), TRT B: rabeprazole 60 mg solution in the colon, N = 19): 34.3%
- Mean percent of time with pH >4 (intragastric pH; 12-18 hr (10 pm-4 am), TRT B: rabeprazole 60 mg solution in the colon, subset N = 14): 39.9%
- Mean percent of time with pH >4 (intragastric pH; 12-18 hr (10 pm-4 am), TRT C: rabeprazole 20 mg oral tablet, N = 19): 25.9%
- Mean percent of time with pH >4 (intragastric pH; 12-18 hr (10 pm-4 am), TRT C: rabeprazole 20 mg oral tablet, subset N = 14): 26.7%
- Mean percent of time with pH >4 (intragastric pH; 18-24 hr (4 am-10 am), TRT A: rabeprazole 30 mg solution in the colon, N = 19): 47.2%
- Mean percent of time with pH >4 (intragastric pH; 18-24 hr (4 am-10 am), TRT B: rabeprazole 60 mg solution in the colon, N = 19): 64.0%
- Mean percent of time with pH >4 (intragastric pH; 18-24 hr (4 am-10 am), TRT B: rabeprazole 60 mg solution in the colon, subset N = 14): 68.9%
- Mean percent of time with pH >4 (intragastric pH; 18-24 hr (4 am-10 am), TRT C: rabeprazole 20 mg oral tablet, N = 19): 37.8%
- Mean percent of time with pH >4 (intragastric pH; 18-24 hr (4 am-10 am), TRT C: rabeprazole 20 mg oral tablet, subset N = 14): 35.4%
- Mean percent of time with pH >4 (intragastric pH; 24-30 hr (10 am-4 pm), TRT A: rabeprazole 30 mg solution in the colon, N = 19): 45.4%
- Mean percent of time with pH >4 (intragastric pH; 24-30 hr (10 am-4 pm), TRT B: rabeprazole 60 mg solution in the colon, N = 19): 64.4%
- Mean percent of time with pH >4 (intragastric pH; 24-30 hr (10 am-4 pm), TRT B: rabeprazole 60 mg solution in the colon, subset N = 14): 72.0%
- Mean percent of time with pH >4 (intragastric pH; 24-30 hr (10 am-4 pm), TRT C: rabeprazole 20 mg oral tablet, N = 19): 43.6%
- Mean percent of time with pH >4 (intragastric pH; 24-30 hr (10 am-4 pm), TRT C: rabeprazole 20 mg oral tablet, subset N = 14): 45.4%
- Mean percent of time with pH >4 (intragastric pH; 24-hr average, TRT A: rabeprazole 30 mg solution in the colon, N = 19): 34.7%
- Mean percent of time with pH >4 (intragastric pH; 24-hr average, TRT A: rabeprazole 30 mg solution in the colon, N = 19, listed as rabeprazole): 35%
- Mean percent of time with pH >4 (intragastric pH; 24-hr average, TRT B: rabeprazole 60 mg solution in the colon, N = 19): 44.9%
- Mean percent of time with pH >4 (intragastric pH; 24-hr average, TRT B: rabeprazole 60 mg solution in the colon, N = 19, listed as rabeprazole): 45%
- Mean percent of time with pH >4 (intragastric pH; 24-hr average, TRT B: rabeprazole 60 mg solution in the colon, subset N = 14): 49.2%
- Mean percent of time with pH >4 (intragastric pH; 24-hr average, TRT C: rabeprazole 20 mg oral tablet, N = 19): 38.9%
- Mean percent of time with pH >4 (intragastric pH; 24-hr average, TRT C: rabeprazole 20 mg oral tablet, N = 19, listed as rabeprazole): 39%
- Mean percent of time with pH >4 (intragastric pH; 24-hr average, TRT C: rabeprazole 20 mg oral tablet, subset N = 14): 38.7%
- dose dependence of percentage of time with pH >4 (intragastric pH; 30 and 60 mg colonic rabeprazole treatments, 6-12 h period and beyond): dose-dependent increase
- effect on percentage of time with pH >4 compared to placebo (intragastric pH; first 6 hours of treatment, rabeprazole Treatments A, B and C): not significantly different from placebo
- gastric pH control compared with rabeprazole 20 mg tablet (intragastric pH; rabeprazole 60 mg colonic treatment, especially during the night-time period (12-30 hr)): better gastric pH control

From patent US20070298105A1, “METHODS OF TREATING CONDITIONS BY SUSTAINED RELEASE ADMINISTRATION OF BENZIMIDAZOLE DERIVATIVES” (priority 2006, published 2007)
